# Test results from patent publication US20080242682A1, “Preventive or Therapeutic Agent for Sleep Disorder” (Takeda Pharmaceutical Company Limited, priority 2004, published 2008).
# What was measured:
# [1] = system: Macaca fascicularis; assay: Experiment 1: sleep electroencephalogram (sleep latency and sleep duration in the night) in monkeys after oral administration; type: in vivo; conditions: female Macaca fascicularis, compound A 0.3 mg/kg, ritanserin 1 mg/kg; for SWS (slow-wave sleep) duration in breakdown of sleep duration / total sleep duration: 12 hours from lights-out to lights-on, drug-treated value; for sleep latency of LS / sleep latency of SWS: before lights-out, drug-treated value (vs vehicle, crossover)
# Procedure: 3 Female Macaca fascicularis were used for experiment. Drugs were administered according to crossover design. Test animals were operated to place an electrode to measure electroencephalogram, and were naturalized fully to test cage. The test animals were raised under light-dark cycle of 12 hour-light period and 12 hour-dark period (light period is from 6:00 to 18:00).
# The dose of compound A was 0.3 mg/kg, and the dose of ritanserin was 1 mg/kg, and these were suspended in 0.5% methylcellulose solution to make dosage of 1 ml/kg. As control, 0.5% methylcellulose solution was used. Administration was conducted orally using transnasal catheter 5 to 10 minutes before extinction (17:50-17:55).
# Measurement items were electroencephalogram, ocular movement and myogenic potential, and behavior was observed using infrared camera. Measurement was carried out for 12 hours from lights-out (18:00) to lights-on (6:00).
# Data analysis was carried out for sleep latency and total sleep duration in the night.
# [2] = system: Cat; assay: Experiment 2: effect of combined use of compound A and gabapentin (GBP) on sleep wakefulness of cat (sleep electroencephalogram); type: in vivo; conditions: oral capsule, 8 hours after administration, compound A 0.1 mg/kg, gabapentin 10 mg/kg
# Procedure: Used animals: 4 Siamese cats (purchased from Narc co.), 2 European shorthairs (purchased from Nisseiken co. Ltd.) and 1 mongrel cat (purchased from Narc co.) were used.
# Under pentobarbital anesthesia, the following electrode and the like were implanted. An antibiotic was administered to prevent bacterial infection, and taming to cage for measuring electroencephalogram was started from 3 to 4 days after the operation. Measurement of electroencephalogram was carried out after 1 to 2 weeks of taming. • electrode for recording electroencephalogram in frontal lobe of cerebral cortex, frontal lobe and hippocampus • electrode for electrooculogram in orbit bone • stainless wire for recording electromyogram in dorsal cervical muscle […]
# After being attached the electrodes for measurement from about 8:30 in the morning, the cats were placed in test box. Administration was conducted by 9:55 to 10:05 in the morning, and the sleep electroencephalogram for 8 hours after administration was measured.
# Electroencephalogram data was obtained using Synafit 2500 of NEC Saneisha. […] In addition, the stage judged to be at slow-wave sleep was extracted, frequency analysis was carried out, and power spectrum during slow-wave sleep was calculated. […]
structure (smiles),measurement,setting,value
"Cc1nc2sccn2c(=O)c1CCN1CCC(=C(c2ccc(F)cc2)c2ccc(F)cc2)CC1 [ritanserin, reference compound]",SWS (slow-wave sleep) duration in breakdown of sleep duration,[1],249 min
same,total sleep duration,[1],573 min
same,sleep latency of LS,[1],12.0 min
same,sleep latency of SWS,[1],39.3 min
"CCC(=O)NCC[C@@H]1CCc2ccc3c(c21)CCO3 [compound A, (S)—N-[2-(1,6,7,8-tetrahydro-2H-indeno[5,4-b]furan-8-yl)ethyl]propionamide]",SWS (slow-wave sleep) duration in breakdown of sleep duration,[1],135 min
same,total sleep duration,[1],610 min
same,sleep latency of LS,[1],13.3 min
same,sleep latency of SWS,[1],31.3 min
same,total slow-wave sleep duration,[2],124.9 min
